Test results published in EP0908457B1, “3-(1,2-benzisothiazol- and isoxazol-5-Y1)-2,4(1H,3H)-pyrimidinedione or thione and 3-(1,2-benzisothiazol- and isoxazol-5-y1)-4(3H)-pyrimidinone or thione herbicidal agents” (BASF AKTIENGESELLSCHAFT, priority 1997, dated 1999).

Columns and labels:
Type in all cases: in vivo
Cyperus iria = assay: Preemergence weed control under flooded paddy conditions, CYPIR (Rice Flatsedge); settings: flooded paddy; for CYPIR: preemergence weeds, herbicidal effect rating 0-9, three to four weeks after treatment; for CYPIR herbicidal rating: preemergence, rated three to four weeks after treatment
[1] = system: Monochoria vaginalis, Presl.; assay: Preemergence weed control under flooded paddy conditions, MOOVA (Monochoria); settings: flooded paddy; for MOOVA: preemergence weeds, herbicidal effect rating 0-9, three to four weeks after treatment; for MOOVA herbicidal rating: preemergence, rated three to four weeks after treatment
Sagittaria pygmaea, L. = assay: Preemergence weed control under flooded paddy conditions, SAGPY (Arrowhead (Pygmaea)); settings: flooded paddy; for SAGPY: preemergence weeds, herbicidal effect rating 0-9, three to four weeks after treatment; for SAGPY herbicidal rating: preemergence, rated three to four weeks after treatment
[2] = system: Cyperus serotinus, Rottb.; assay: Preemergence weed control under flooded paddy conditions, CYPSE (Flatsedge); settings: for CYPSE: preemergence weeds, herbicidal effect rating 0-9, three to four weeks after treatment; for CYPSE herbicidal rating: preemergence, rated three to four weeks after treatment
[3] = system: Echinochloa oryzoides (Ard.) Fritsch.; assay: Preemergence weed control under flooded paddy conditions, ECHORC (Watergrass (Calif.)); settings: flooded paddy; for ECHORC: preemergence weeds, herbicidal effect rating 0-9, three to four weeks after treatment; for ECHORC herbicidal rating: preemergence, rated three to four weeks after treatment

Row | SMILES | CYPIR (Cyperus iria; 0.0320 kg/ha) | CYPIR herbicidal rating (Cyperus iria; 0.0320 kg/ha) | CYPIR herbicidal rating (Cyperus iria; 0.0620 kg/ha) | CYPIR herbicidal rating (Cyperus iria; 0.1250 kg/ha) | CYPIR herbicidal rating (Cyperus iria; 0.2500 kg/ha) | MOOVA herbicidal rating ([1]; 0.0320 kg/ha) | MOOVA herbicidal rating ([1]; 0.0620 kg/ha) | MOOVA herbicidal rating ([1]; 0.1250 kg/ha) | MOOVA herbicidal rating ([1]; 0.2500 kg/ha) | SAGPY herbicidal rating (Sagittaria pygmaea, L.; 0.0320 kg/ha) | SAGPY herbicidal rating (Sagittaria pygmaea, L.; 0.0620 kg/ha) | SAGPY herbicidal rating (Sagittaria pygmaea, L.; 0.1250 kg/ha) | SAGPY herbicidal rating (Sagittaria pygmaea, L.; 0.2500 kg/ha) | CYPSE herbicidal rating ([2]; 0.0320 kg/ha) | CYPSE herbicidal rating ([2]; 0.1250 kg/ha) | CYPSE herbicidal rating ([2]; 0.2500 kg/ha) | ECHORC herbicidal rating ([3]; 0.0320 kg/ha) | ECHORC herbicidal rating ([3]; 0.0620 kg/ha) | ECHORC herbicidal rating ([3]; 0.1250 kg/ha) | ECHORC herbicidal rating ([3]; 0.2500 kg/ha) | further results
1 | COc1cccc(CC(=O)OCc2nsc3ccc(-n4c(=O)cc(C(F)(F)F)n(C)c4=O)cc23)c1 [Example 454, 2,4(1H,3H)-Pyrimidinedione, 3-[3-(hydroxymethyl)-1,2-benzisothiazol-5-yl]-1-methyl-6-(trifluoromethyl)-, (m-methoxyphenyl)acetate (ester)] | 0.0 |  |  |  |  |  |  |  |  |  |  |  |  |  |  |  |  |  |  |  | CYPIR (Cyperus iria; 0.0620 kg/ha): 1.0; CYPIR (Cyperus iria; 0.1250 kg/ha): 6.0; CYPIR (Cyperus iria; 0.2500 kg/ha): 9.0; MOOVA ([1]; 0.0320 kg/ha): 2.0; MOOVA ([1]; 0.0620 kg/ha): 7.0; MOOVA ([1]; 0.1250 kg/ha): 9.0; MOOVA ([1]; 0.2500 kg/ha): 9.0; SAGPY (Sagittaria pygmaea, L.; 0.0320 kg/ha): 0.0; SAGPY (Sagittaria pygmaea, L.; 0.0620 kg/ha): 2.0; SAGPY (Sagittaria pygmaea, L.; 0.1250 kg/ha): 3.0; SAGPY (Sagittaria pygmaea, L.; 0.2500 kg/ha): 6.0; CYPSE ([2]; 0.0320 kg/ha): 0.0; CYPSE ([2]; 0.0620 kg/ha): 0.0; CYPSE ([2]; 0.1250 kg/ha): 4.0; CYPSE ([2]; 0.2500 kg/ha): 8.0; ECHORC ([3]; 0.0320 kg/ha): 3.0; ECHORC ([3]; 0.0620 kg/ha): 3.0; ECHORC ([3]; 0.1250 kg/ha): 6.0; ECHORC ([3]; 0.2500 kg/ha): 7.0
2 | Cn1c(C(F)(F)F)cc(=O)n(-c2ccc3snc(C(C#N)=CC4CC4)c3c2)c1=O [Example 458, 1,2-Benzisothiazole-3-acetonitrile, alpha(cyclopropylmethylene)-5-[3,6-dihydro-3-methyl-2,6-dioxo-4-(trifluoromethyl)-1(2H)-pyrimidinyl]-, (E)- and (Z)-] | 0.0 |  |  |  |  |  |  |  |  |  |  |  |  |  |  |  |  |  |  |  | CYPIR (Cyperus iria; 0.0620 kg/ha): 4.0; CYPIR (Cyperus iria; 0.1250 kg/ha): 7.0; CYPIR (Cyperus iria; 0.2500 kg/ha): 7.0; MOOVA ([1]; 0.0320 kg/ha): 4.0; MOOVA ([1]; 0.0620 kg/ha): 6.0; MOOVA ([1]; 0.1250 kg/ha): 9.0; MOOVA ([1]; 0.2500 kg/ha): 9.0; SAGPY (Sagittaria pygmaea, L.; 0.0320 kg/ha): 2.0; SAGPY (Sagittaria pygmaea, L.; 0.0620 kg/ha): 2.0; SAGPY (Sagittaria pygmaea, L.; 0.1250 kg/ha): 6.0; SAGPY (Sagittaria pygmaea, L.; 0.2500 kg/ha): 8.0; CYPSE ([2]; 0.0320 kg/ha): 2.0; ECHORC ([3]; 0.0320 kg/ha): 5.0; ECHORC ([3]; 0.0620 kg/ha): 6.0; ECHORC ([3]; 0.1250 kg/ha): 7.0; ECHORC ([3]; 0.2500 kg/ha): 8.0
3 | Cn1c(C(F)(F)F)cc(=O)n(-c2ccc3snc(COC(=O)c4ccncc4)c3c2)c1=O [Example 463, 2,4(1H,3H)-Pyrimidinedione, 3-[3-(hydroxymethyl)-1,2-benzisothiazol-5-yl]-1-methyl-6-(trifluoromethyl)-, isonicotinate (ester)] |  | 5.0 | 6.0 | 9.0 | 9.0 | 7.0 | 9.0 | 9.0 | 9.0 | 0.0 | 3.0 | 5.0 | 7.0 | 2.0 | 6.0 | 7.0 | 2.0 | 6.0 | 9.0 | 9.0 | 
4 | COC(CCOc1ccc(C)cc1-c1nsc2ccc(-n3c(=O)cc(C(F)(F)F)n(C)c3=O)cc12)OC [Example 467, Propionaldehyde, 3-{{2-[5-{3,6-dihydro-3-methyl-2,6-dioxo-4-(trifluoromethyl)-1(2H)-pyrimidinyl]-1,2-benzisothiazol-3-yl}-p-tolyl}oxy}-, 1-(dimethylacetal)] |  | 2.0 | 5.0 | 6.0 | 9.0 | 7.0 | 9.0 | 9.0 | 9.0 | 0.0 | 0.0 | 3.0 | 7.0 | 6.0 | 9.0 | 9.0 | 6.0 | 7.0 | 9.0 | 9.0 | CYPSE herbicidal rating ([2]; 0.0620 kg/ha): 7.0
5 | COC(=O)COc1cc(C)c(I)cc1-c1nsc2ccc(-n3c(=O)cc(C(F)(F)F)n(C)c3=O)cc12 [Example 469, Acetic acid, {{6-{5-[3,6-dihydro-3-methyl-2,6-dioxo-4-(trifluoromethyl)-1(2H)-pyrimidinyl]-1,2-benzisothiazol-3-yl}-4-iodo-m-tolyl}oxy}-, methyl ester] |  | 0.0 | 1.5 | 6.5 | 7.0 | 2.0 | 4.5 | 5.0 | 8.0 | 0.0 | 1.5 | 2.5 | 3.0 | 0.0 | 9.0 | 6.0 | 7.0 | 9.0 | 9.0 | 9.0 | CYPSE herbicidal rating ([2]; 0.0620 kg/ha): 4.5
